Experiments:
[1] = Antiproliferative activity against human GTL16 cells after 72 hrs by MTS assay; format: functional, cell-based; settings: GTL 16, 72 h
[2] = molecular target: Hepatocyte growth factor receptor (Homo sapiens, UniProt P08581); assay: Inhibition of MET
[3] = test system: NCI-N87; assay: Antiproliferative activity against human N87 cells after 72 hrs by MTS assay; format: functional, cell-based; settings: NCI-N87, 72 h
[4] = Clearance in BALB/c mouse at 5 mg/kg, iv; format: ADME, organism-based; design: dose 5 mg/kg, route intravenous; settings: in vivo
[5] = Mean residence time in BALB/c mouse at 10 mg/kg, po; format: ADME, organism-based; design: dose 10 mg/kg, route oral; settings: in vivo
[6] = Antitumor activity against human GTL16 cells xenografted BALB/c mouse assessed as induction of complete tumor stasis at 25 mg/kg, po qd administered 14 days after tumor implantation; format: functional; settings: GTL 16, 336 h, read-out: TGI
[7] = test system: Liver microsomes; assay: Metabolic stability in human liver microsomes assessed as metabolic rate per mg of protein at 3 uM; format: ADME, Microsome
[8] = molecular target: Cyclin-dependent kinase 2 (Homo sapiens, UniProt P24941); assay: Inhibition of CDK2/cyclin E
[9] = molecular target: Vascular endothelial growth factor receptor 2 (Homo sapiens, UniProt P35968); assay: Inhibition of VEGFR2
[10] = test system: Serum; assay: Protein binding in mouse serum at 10 uM by equilibrium dialysis method; format: ADME, cell-free
[11] = Metabolic stability in mouse liver microsomes assessed as metabolic rate per mg of protein at 3 uM; format: ADME, Microsome
[12] = Inhibition of PKA
[13] = Half life in BALB/c mouse at 10 mg/kg, po; format: ADME, organism-based; design: dose 10 mg/kg, route oral; settings: in vivo
[14] = Antitumor activity against human GTL16 cells xenografted po dosed BALB/c mouse administered once daily 14 days after tumor implantation; format: functional; settings: GTL 16, po, 336 h, read-out: MED
[15] = molecular target: T1, Receptor-type tyrosine-protein kinase FLT3 (Homo sapiens, UniProt P36888); assay: Inhibition of Flt3
T1 sequence (P36888 whole entry): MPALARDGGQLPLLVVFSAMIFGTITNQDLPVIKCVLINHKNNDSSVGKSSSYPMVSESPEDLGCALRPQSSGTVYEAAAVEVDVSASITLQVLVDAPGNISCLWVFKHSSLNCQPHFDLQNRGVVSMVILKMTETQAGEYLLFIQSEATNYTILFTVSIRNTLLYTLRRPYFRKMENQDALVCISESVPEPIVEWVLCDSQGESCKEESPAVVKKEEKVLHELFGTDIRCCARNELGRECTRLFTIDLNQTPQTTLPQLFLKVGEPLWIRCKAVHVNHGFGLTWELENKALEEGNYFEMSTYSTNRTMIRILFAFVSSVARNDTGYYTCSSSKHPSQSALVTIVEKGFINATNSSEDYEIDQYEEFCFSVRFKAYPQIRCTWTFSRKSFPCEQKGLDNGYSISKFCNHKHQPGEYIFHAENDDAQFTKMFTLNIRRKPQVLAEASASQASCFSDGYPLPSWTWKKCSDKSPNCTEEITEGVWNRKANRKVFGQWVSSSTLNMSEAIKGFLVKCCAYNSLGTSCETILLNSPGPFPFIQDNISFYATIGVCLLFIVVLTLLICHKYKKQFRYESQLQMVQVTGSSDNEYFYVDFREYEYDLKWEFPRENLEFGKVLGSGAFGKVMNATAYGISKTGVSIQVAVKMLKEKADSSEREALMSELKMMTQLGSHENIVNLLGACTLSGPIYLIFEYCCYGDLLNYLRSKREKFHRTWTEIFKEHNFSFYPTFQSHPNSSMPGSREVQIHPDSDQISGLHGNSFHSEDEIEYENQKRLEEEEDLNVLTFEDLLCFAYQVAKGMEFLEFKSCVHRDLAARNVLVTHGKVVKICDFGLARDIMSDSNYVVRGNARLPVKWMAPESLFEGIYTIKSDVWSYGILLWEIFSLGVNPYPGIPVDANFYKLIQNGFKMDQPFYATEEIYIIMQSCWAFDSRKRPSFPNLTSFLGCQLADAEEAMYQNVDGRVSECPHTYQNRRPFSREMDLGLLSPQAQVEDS

[16] = molecular target: Insulin-like growth factor 1 receptor (Homo sapiens, UniProt P08069); assay: Inhibition of IGF1R
[17] = molecular target: Mast/stem cell growth factor receptor Kit (Homo sapiens, UniProt P10721); assay: Inhibition of c-Kit
[18] = Toxicity in human GTL16 cells xenografted BALB/c mouse assessed as maximum tolerated dose at 100 mg/kg, po qd administered 14 days after tumor implantation; format: organism-based; design: dose 100 mg/kg, route oral; settings: in vivo
[19] = molecular target: Protein kinase C alpha type (Homo sapiens, UniProt P17252); assay: Inhibition of PKCalpha
[20] = AUC (0 to 24 hrs) in BALB/c mouse at 10 mg/kg, po; format: ADME, organism-based; design: time < 24 hr, dose 10 mg/kg, route oral; settings: plasma
[21] = AUC (0 to 24 hrs) in BALB/c mouse at 5 mg/kg, iv; format: ADME, organism-based; design: time < 24 hr, dose 5 mg/kg, route intravenous; settings: plasma
[22] = Tmax in BALB/c mouse at 10 mg/kg, po; format: ADME, organism-based; design: dose 10 mg/kg, route oral; settings: in vivo
[23] = test system: Serum; assay: Protein binding in human serum at 10 uM by equilibrium dialysis method; format: ADME, cell-free
[24] = Volume of distribution at steady state in BALB/c mouse at 5 mg/kg, iv; format: ADME, organism-based; design: dose 5 mg/kg, route intravenous; settings: in vivo, read-out: Vdss
[25] = Half life in BALB/c mouse at 5 mg/kg, iv; format: ADME, organism-based; design: dose 5 mg/kg, route intravenous; settings: in vivo
[26] = Antitumor activity against human GTL16 cells xenografted BALB/c mouse assessed as induction of tumor regression at 50 mg/kg, po qd administered 14 days after tumor implantation; format: functional; settings: GTL 16, 336 h, read-out: TGI
[27] = molecular target: Insulin receptor (Homo sapiens, UniProt P06213); assay: Inhibition of InsR
[28] = molecular target: MAP kinase-activated protein kinase 2 (Homo sapiens, UniProt P49137); assay: Inhibition of MK2
[29] = Mean residence time in BALB/c mouse at 5 mg/kg, iv; format: ADME, organism-based; design: dose 5 mg/kg, route intravenous; settings: in vivo
[30] = Oral bioavailability in BALB/c mouse at 10 mg/kg, po; format: ADME, organism-based; settings: in vivo
[31] = Antitumor activity against human GTL16 cells xenografted BALB/c mouse assessed as at 12.5 mg/kg, po qd administered 14 days after tumor implantation; settings: GTL 16, po, 336 h, read-out: TGI
[32] = Cmax in BALB/c mouse at 10 mg/kg, po; format: ADME, organism-based; design: dose 10 mg/kg, route oral; settings: in vivo
[33] = molecular target: Tyrosine-protein kinase Lck (Homo sapiens, UniProt P06239)
Chain of Tyrosine-protein kinase Lck (P06239 whole entry): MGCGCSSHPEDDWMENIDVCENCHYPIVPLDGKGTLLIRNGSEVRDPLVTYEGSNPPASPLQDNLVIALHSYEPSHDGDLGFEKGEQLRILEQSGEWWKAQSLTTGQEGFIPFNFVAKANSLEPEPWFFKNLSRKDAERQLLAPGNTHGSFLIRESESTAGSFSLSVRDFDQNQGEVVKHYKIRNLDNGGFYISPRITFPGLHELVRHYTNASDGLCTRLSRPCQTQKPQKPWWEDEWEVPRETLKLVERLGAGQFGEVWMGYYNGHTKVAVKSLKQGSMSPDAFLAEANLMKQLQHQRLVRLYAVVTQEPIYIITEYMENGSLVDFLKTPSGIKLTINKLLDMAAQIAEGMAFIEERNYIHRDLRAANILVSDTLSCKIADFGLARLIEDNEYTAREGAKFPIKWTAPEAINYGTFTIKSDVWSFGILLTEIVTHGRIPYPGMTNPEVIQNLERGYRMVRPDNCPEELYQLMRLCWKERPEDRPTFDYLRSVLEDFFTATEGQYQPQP

Chain of Hepatocyte growth factor receptor (P08581 whole entry): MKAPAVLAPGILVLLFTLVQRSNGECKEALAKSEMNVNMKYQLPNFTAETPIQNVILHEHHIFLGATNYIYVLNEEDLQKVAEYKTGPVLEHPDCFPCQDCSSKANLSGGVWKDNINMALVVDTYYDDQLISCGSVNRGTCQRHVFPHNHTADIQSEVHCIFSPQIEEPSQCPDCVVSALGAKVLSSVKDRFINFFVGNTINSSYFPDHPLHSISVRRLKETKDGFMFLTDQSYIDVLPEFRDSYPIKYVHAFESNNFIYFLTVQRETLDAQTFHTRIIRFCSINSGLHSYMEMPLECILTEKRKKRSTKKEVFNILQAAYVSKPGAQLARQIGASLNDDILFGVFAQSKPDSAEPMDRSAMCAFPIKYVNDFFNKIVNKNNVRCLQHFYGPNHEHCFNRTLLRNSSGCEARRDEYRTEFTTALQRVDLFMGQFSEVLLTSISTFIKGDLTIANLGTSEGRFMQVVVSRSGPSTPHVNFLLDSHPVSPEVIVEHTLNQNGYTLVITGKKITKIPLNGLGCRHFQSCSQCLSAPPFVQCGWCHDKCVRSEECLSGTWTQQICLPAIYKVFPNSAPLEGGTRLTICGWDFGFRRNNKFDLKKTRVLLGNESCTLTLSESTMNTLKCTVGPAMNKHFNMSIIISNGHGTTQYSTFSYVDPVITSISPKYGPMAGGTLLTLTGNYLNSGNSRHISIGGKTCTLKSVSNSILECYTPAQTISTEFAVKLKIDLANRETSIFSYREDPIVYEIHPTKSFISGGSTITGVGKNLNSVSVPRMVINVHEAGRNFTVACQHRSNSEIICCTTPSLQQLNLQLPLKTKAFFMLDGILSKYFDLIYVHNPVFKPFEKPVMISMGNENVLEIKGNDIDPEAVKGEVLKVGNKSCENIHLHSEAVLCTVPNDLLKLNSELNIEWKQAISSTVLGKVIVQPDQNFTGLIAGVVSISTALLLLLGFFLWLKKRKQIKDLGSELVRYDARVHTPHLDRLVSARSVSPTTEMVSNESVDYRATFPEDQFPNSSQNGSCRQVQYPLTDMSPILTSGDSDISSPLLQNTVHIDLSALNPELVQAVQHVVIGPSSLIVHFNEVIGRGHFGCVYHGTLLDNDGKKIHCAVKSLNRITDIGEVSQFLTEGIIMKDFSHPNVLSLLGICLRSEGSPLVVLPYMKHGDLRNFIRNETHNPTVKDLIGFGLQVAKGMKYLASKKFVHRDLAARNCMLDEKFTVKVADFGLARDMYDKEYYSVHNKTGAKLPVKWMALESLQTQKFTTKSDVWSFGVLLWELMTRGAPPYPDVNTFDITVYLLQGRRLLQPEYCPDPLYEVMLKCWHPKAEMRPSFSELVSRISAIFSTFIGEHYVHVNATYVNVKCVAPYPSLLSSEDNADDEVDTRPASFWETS
Chain of Vascular endothelial growth factor receptor 2 (P35968 whole entry): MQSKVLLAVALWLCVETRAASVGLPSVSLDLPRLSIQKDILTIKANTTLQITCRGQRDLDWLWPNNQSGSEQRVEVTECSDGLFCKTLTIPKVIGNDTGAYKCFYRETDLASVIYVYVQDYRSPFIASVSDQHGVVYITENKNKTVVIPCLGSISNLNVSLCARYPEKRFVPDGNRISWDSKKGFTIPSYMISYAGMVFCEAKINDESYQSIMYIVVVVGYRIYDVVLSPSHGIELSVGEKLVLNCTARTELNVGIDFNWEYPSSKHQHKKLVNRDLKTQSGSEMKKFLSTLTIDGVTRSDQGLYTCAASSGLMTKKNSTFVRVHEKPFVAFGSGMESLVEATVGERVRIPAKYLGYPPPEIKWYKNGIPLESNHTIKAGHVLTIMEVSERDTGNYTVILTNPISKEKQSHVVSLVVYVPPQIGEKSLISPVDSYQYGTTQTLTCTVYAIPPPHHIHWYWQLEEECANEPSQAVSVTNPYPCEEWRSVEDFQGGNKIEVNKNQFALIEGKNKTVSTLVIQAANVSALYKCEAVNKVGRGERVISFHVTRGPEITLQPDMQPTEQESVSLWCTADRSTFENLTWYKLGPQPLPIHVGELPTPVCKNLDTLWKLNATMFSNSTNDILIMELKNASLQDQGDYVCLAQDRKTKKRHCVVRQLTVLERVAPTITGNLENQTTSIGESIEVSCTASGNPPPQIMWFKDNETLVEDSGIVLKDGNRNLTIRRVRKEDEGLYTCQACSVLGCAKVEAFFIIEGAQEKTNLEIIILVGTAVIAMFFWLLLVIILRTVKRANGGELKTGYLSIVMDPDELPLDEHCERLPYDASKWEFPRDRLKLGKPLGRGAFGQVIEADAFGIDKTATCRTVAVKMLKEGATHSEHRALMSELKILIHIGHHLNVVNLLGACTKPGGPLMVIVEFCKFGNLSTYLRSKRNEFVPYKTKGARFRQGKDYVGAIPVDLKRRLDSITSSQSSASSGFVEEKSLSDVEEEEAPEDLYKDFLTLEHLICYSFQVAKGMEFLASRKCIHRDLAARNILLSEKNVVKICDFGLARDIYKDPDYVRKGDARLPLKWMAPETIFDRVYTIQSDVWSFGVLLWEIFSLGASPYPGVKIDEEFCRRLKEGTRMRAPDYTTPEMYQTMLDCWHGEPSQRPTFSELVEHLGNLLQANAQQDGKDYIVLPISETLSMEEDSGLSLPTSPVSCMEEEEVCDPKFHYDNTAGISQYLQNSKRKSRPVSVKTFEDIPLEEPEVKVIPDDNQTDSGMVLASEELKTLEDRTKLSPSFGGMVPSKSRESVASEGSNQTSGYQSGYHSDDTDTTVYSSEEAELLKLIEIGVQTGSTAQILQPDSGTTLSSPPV
Chain of Mast/stem cell growth factor receptor Kit (P10721 whole entry): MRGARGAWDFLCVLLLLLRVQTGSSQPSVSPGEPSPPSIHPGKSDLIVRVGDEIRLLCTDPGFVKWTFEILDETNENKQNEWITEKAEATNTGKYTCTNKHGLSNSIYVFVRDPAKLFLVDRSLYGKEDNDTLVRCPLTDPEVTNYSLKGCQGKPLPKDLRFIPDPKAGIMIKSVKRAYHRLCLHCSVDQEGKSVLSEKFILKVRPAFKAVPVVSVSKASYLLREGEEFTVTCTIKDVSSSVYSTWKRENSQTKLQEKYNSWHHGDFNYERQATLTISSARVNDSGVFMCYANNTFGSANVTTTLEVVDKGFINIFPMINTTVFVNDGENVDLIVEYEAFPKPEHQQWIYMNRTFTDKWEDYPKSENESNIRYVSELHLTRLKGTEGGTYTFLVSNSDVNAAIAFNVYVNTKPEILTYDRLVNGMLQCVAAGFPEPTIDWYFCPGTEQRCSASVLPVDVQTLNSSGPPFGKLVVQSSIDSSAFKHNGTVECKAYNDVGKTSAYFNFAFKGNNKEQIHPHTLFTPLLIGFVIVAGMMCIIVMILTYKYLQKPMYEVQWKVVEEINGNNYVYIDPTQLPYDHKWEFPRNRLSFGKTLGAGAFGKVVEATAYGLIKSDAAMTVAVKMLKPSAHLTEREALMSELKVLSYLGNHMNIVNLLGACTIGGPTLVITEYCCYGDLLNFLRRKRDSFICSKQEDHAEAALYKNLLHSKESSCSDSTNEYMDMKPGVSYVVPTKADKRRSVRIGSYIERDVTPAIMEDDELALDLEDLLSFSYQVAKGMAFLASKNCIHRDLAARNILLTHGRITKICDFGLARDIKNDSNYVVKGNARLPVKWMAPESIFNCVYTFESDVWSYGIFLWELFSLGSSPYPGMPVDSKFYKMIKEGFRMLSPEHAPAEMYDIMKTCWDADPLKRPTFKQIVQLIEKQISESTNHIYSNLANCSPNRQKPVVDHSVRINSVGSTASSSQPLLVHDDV

O=C(Nc1ccc(Oc2ccnc3[nH]ccc23)c(F)c1)c1cccc(-c2ccccc2)[n+]1[O-]
IC50 [1]: 40 nM | IC50 [2]: 1.3 nM | IC50 [3]: > 5000 nM

O=C(Nc1ccc(Oc2ccnc3[nH]ccc23)c(F)c1)c1cccn(-c2ccc(F)cc2)c1=O
clearance [4]: 9.2 mL/min/kg | MRT [5]: 4.5 h | inhibition in vivo at 25 mg/kg [6]: 86% | Stability [7]: < 0.01 nM/min/mg | IC50 [8]: > 1000 nM | IC50 [9]: 27 nM | Activity [10]: 99.4% | Stability [11]: 0.055 nM/min/mg | IC50 [12]: > 30000 nM | half-life [13]: 2.2 h | minimal effective dose [14]: 12.5 mg/kg | IC50 [15]: 4 nM | IC50 [16]: > 5000 nM | IC50 [17]: 610 nM | MTD at 336 h [18]: 100 mg/kg | IC50 [19]: > 30000 nM | AUC(0-t) at 24 h [20]: 50.2 µM·h | AUC(0-t) at 24 h [21]: 19.8 µM·h | Tmax [22]: 0.5 h | Activity [23]: 99.9% | Vd [24]: 1.6 L/kg | half-life [25]: 2.5 h | inhibition in vivo at 50 mg/kg [26]: 110% | IC50 [27]: > 5000 nM | IC50 [28]: > 10000 nM | MRT [29]: 3 h | bioavailability [30]: 100% | IC50 [3]: > 5000 nM | inhibition in vivo at 12.5 mg/kg [31]: 62% | Cmax [32]: 11.5 µM | IC50 [33]: 290 nM

COc1ccc(-n2cc(C(=O)Nc3ccc(Oc4ccnc5[nH]ccc45)c(F)c3)c(=O)c(-c3ccc(F)cc3)c2)cc1F
IC50 [1]: 200 nM | IC50 [2]: 5 nM | IC50 [3]: > 5000 nM

O=C(Nc1ccc(Oc2ccnc3[nH]ccc23)c(F)c1)c1cncc(-c2ccc(F)cc2)c1O
IC50 [1]: 70 nM | IC50 [2]: 2.8 nM | IC50 [3]: 1240 nM

O=C(Nc1ccc(Oc2ccnc3[nH]ccc23)c(F)c1)c1cn(CCO)cc(-c2ccc(F)cc2)c1=O
IC50 [1]: 280 nM | IC50 [2]: 3.8 nM | IC50 [3]: > 5000 nM

O=C(Nc1ccc(Oc2ccnc3[nH]ccc23)c(F)c1)c1cn(-c2ccc(Cl)c(F)c2)cc(-c2ccc(F)cc2)c1=O
IC50 [1]: 130 nM | IC50 [2]: 2.3 nM | IC50 [3]: > 5000 nM

O=C(Nc1ccc(Oc2ccnc3[nH]ccc23)c(F)c1)c1cccn(Cc2ccc(F)cc2)c1=O
IC50 [1]: 2100 nM | IC50 [2]: 8.2 nM | IC50 [3]: > 5000 nM

O=C(Nc1ccc(Oc2ccnc3[nH]ccc23)c(F)c1)c1cccn(-c2ccccn2)c1=O
IC50 [1]: 970 nM | IC50 [2]: 10 nM | IC50 [3]: > 5000 nM

O=C(Nc1ccc(Oc2ccnc3[nH]ccc23)c(F)c1)c1cccc(-c2ccc(F)cc2)[n+]1[O-]
IC50 [1]: 40 nM | IC50 [2]: 1.8 nM | IC50 [3]: 4900 nM

CC(C)CCn1cccc(C(=O)Nc2ccc(Oc3ccnc4[nH]ccc34)c(F)c2)c1=O
IC50 [1]: 3700 nM | IC50 [2]: 30 nM | IC50 [3]: > 5000 nM

CC(C)(C)n1cccc(C(=O)Nc2ccc(Oc3ccnc4[nH]ccc34)c(F)c2)c1=O
IC50 [2]: 1000 nM

Cn1cc(C(=O)Nc2ccc(Oc3ccnc4[nH]ccc34)c(F)c2)c(=O)c(-c2ccc(F)cc2)c1
IC50 [1]: 150 nM | IC50 [2]: 3.1 nM | IC50 [3]: 2620 nM

O=C(Nc1ccc(Oc2ccnc3[nH]ccc23)c(F)c1)c1cccn(-c2cccnc2)c1=O
IC50 [1]: 4000 nM | IC50 [2]: 70 nM | IC50 [3]: > 5000 nM

O=C(Nc1ccc(Oc2ccnc3[nH]ccc23)c(F)c1)c1cccn(C2CC2)c1=O
IC50 [2]: 1000 nM

O=C(Nc1ccc(Oc2ccnc3[nH]ccc23)c(F)c1)c1cn(C2CC2)cc(-c2ccc(F)cc2)c1=O
IC50 [1]: 60 nM | IC50 [2]: 3.4 nM | IC50 [3]: > 5000 nM

O=C(Nc1ccc(Oc2ccnc3[nH]ccc23)c(F)c1)c1cccn(-c2ccccc2)c1=O
IC50 [1]: 140 nM | IC50 [2]: 1.9 nM | IC50 [3]: > 5000 nM

O=C(Nc1ccc(Oc2ccnc3[nH]ccc23)c(F)c1)c1cccc(-c2ccccc2)n1
IC50 [2]: 470 nM

NC(=O)c1ccc(-n2cccc(C(=O)Nc3ccc(Oc4ccnc5[nH]ccc45)c(F)c3)c2=O)cc1
IC50 [1]: > 5000 nM | IC50 [2]: 1000 nM

O=C(Nc1ccc(Oc2ccnc3[nH]ccc23)c(F)c1)c1cocc(-c2ccc(F)cc2)c1=O
IC50 [1]: > 10000 nM | IC50 [2]: 1400 nM
